Consider 14 compounds from ChEMBL document CHEMBL1201862, “PubChem BioAssay data set” (2004).

SMILES strings stand for the structures.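 How tested: cells in 96-well plates exposed to compound for 48 hours at five concentrations. GI50 marks 50% less growth.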 Activity calls are given as the source filed them. No stated cut-off is given here; in the data, active = GI50 up to about 1.1 µM and inactive = higher.

What all share (experiment): inhibition of tumour cell growth, NCI panel, 48 h
For assay [1], the system named is SK-MEL-5.
Assay [2] relates to UACC-62.
Assay [3] relates to ACHN.
For assay [4], the system named is NCI-H522.
Assay [5] relates to SK-OV-3.
The test system of assay [6] is IGROV-1.
In assay [7] the test system is U-251.
Assay [8] has as its system OVCAR-3.
The subject of assay [9] is RPMI-8226.
Assay [10] deals with SF-268.
Assay [11] has as its system SK-MEL-2.
Assay [12] has as its system SW-620.
For assay [13], the system named is A549.
The subject of assay [14] is SNB-75.
In assay [15] the test system is HOP-62.

In the case of `CCOC(=O)c1ccc(N2C(=O)/C(=C\OC)c3ccccc3C2=O)cc1`, the GI50 was 70.8 µM (inactive) in assay [1]; 23.2 µM (inactive) in [2]; 42.4 µM (inactive) in assay [3]; 29 µM (inactive) in assay [4]; 5.22 µM (inactive) in [5]; 25.2 µM (inactive) in assay [6]. Also, the GI50 in assay [7] is 22.7 µM (inactive); in assay [8], 36.6 µM (inactive); in assay [9] it was 27.8 µM (inactive); in assay [10], 27.7 µM (inactive); in assay [11] it was 23 µM (inactive); in assay [12], 33.8 µM (inactive). Also, the results for the GI50 in [13] and in assay [14] were 43.3 µM (inactive) and 25.5 µM (inactive), respectively.

As to `NC1c2ccccc2Nc2ccccc21`, the GI50 is 5.28 µM (inactive) in [1]; 4.26 µM (inactive) in assay [2]; 4.9 µM (inactive) in [3]; 6.15 µM (inactive) in assay [15]; 2.15 µM (inactive) in assay [4]; 4.67 µM (inactive) in assay [5]. Moreover, the GI50 in assay [6] was 2.95 µM (inactive); in [8] it was 6.08 µM (inactive); in [9], 4.56 µM (inactive); in assay [10], 3.08 µM (inactive); in [11], 13.2 µM (inactive); in assay [12] it was 3.66 µM (inactive). The results for the GI50 in assay [13] and in assay [14] were 4.26 µM (inactive) and 11.8 µM (inactive), respectively.

Turning to `CCCc1c(C(=O)OCC)[nH]c(-c2ccc(-c3[nH]c(C(=O)OCC)c(CCC)c3C(=O)OCC)s2)c1C(=O)OCC`, the GI50 was 35.2 µM (inactive) in assay [1]; 32.1 µM (inactive) in assay [2]; 34.8 µM (inactive) in assay [3]; 32.6 µM (inactive) in [4]; 27.1 µM (inactive) in assay [5]; 58.2 µM (inactive) in assay [6]. Moreover, the GI50 in [7] is 36.1 µM (inactive); in [8], 31.6 µM (inactive); in assay [9], 87.7 µM (inactive); in assay [10] it was 26.9 µM (inactive); in [11], 15.7 µM (inactive); in [12], > 100 µM (inactive). The GI50 was 52.4 µM (inactive) in [13] and 11.8 µM (inactive) in [14].

Consider `COc1cc(CC(=O)O)c([N+](=O)[O-])cc1OC`, for which the GI50 in assay [2], in assay [3], in [15], in assay [4], in assay [5] and in assay [6] was > 100 µM (inactive) each time. Further, the GI50 in assay [7], in [8], in assay [9], in assay [10], in assay [11] and in assay [12] was > 100 µM (inactive) throughout. Besides, the GI50 in assay [13] and in [14] was > 100 µM (inactive) in each case.

On to `O=P(Oc1ccc2ccccc2c1)(N1CC1)N1CC1`, for which the GI50 in assay [2] is 2.88 µM (inactive); in assay [3], 2.61 µM (inactive); in [4], 11 µM (inactive); in [5], 46.3 µM (inactive); in assay [6] it was 83.4 µM (inactive); in [7] it was 27.6 µM (inactive). The GI50 in [8] is 65.8 µM (inactive); in assay [9], > 100 µM (inactive); in assay [10] it was 2.15 µM (inactive); in assay [11], 68.1 µM (inactive); in [12], > 100 µM (inactive); in assay [13] it was 5.62 µM (inactive).

Consider `COc1ccc(C(O)/C(=N\NC(N)=S)c2nc3ccc([N+](=O)[O-])cc3nc2O)cc1OC` (stereo not given), for which the GI50 in assay [2] was > 100 µM (inactive); in assay [3], > 100 µM (inactive); in assay [15], > 100 µM (inactive); in [4] it was 32.4 µM (inactive); in assay [5] it was > 100 µM (inactive); in assay [6], > 100 µM (inactive). Also, the GI50 in assay [7], in [9], in assay [10], in assay [11], in assay [12] and in [13] was > 100 µM (inactive) each time. Also, the GI50 in assay [14] is > 100 µM (inactive).

`C[C@]12CC[C@H](O)CC1=CC[C@@H]1C2CC[C@]2(C)Nc3c(cnn3-c3ccccc3)CC12` (stereo not given in full): the GI50 is 3.24 µM (inactive) in assay [1]; 4.14 µM (inactive) in assay [2]; 3.26 µM (inactive) in [3]; 2.81 µM (inactive) in [15]; 4.07 µM (inactive) in assay [5]; 7.05 µM (inactive) in [6]. The GI50 in [7] is 2.36 µM (inactive); in [8], 5.9 µM (inactive); in [9], 0.361 µM (active); in assay [11], 9.73 µM (inactive); in [12] it was 2.6 µM (inactive); in assay [13], 3.43 µM (inactive). In addition, the GI50 in assay [14] was 1 µM (active).

Regarding `CC1=N/C(=C\c2ccc([N+](=O)[O-])cc2)C(=O)O1`, the GI50 in assay [1], in [2], in assay [3], in assay [15], in [4] and in assay [6] was > 100 µM (inactive) throughout. Further, the GI50 in [7], in [8], in assay [9], in assay [10], in assay [11] and in assay [12] was > 100 µM (inactive) throughout. The GI50 in assay [13] is > 100 µM (inactive).

Regarding `O=C(COC(=O)c1cccc2c(=O)c3ccccc3[nH]c12)Nc1ccc(C(=O)O)cc1`, the GI50 in assay [1] was > 100 µM (inactive); in [2], 71 µM (inactive); in assay [3], > 100 µM (inactive); in assay [15], > 100 µM (inactive); in [4] it was 43.7 µM (inactive); in assay [5], > 100 µM (inactive). Also, the GI50 in assay [6] was 99.1 µM (inactive); in assay [7], > 100 µM (inactive); in [8], 50 µM (inactive); in assay [10], > 100 µM (inactive); in [12], > 100 µM (inactive); in [13] it was > 100 µM (inactive). Also, the GI50 in assay [14] is 42.5 µM (inactive).

As to `CCSC1=C(C)N(/C=N/C(C)(C)C)CC1`, the GI50 in [1], in assay [2], in assay [3], in assay [15], in [4] and in [5] was > 100 µM (inactive) in each case. For the same compound, the GI50 in assay [6] was > 100 µM (inactive); in assay [7] it was > 100 µM (inactive); in [8], > 100 µM (inactive); in [10], > 100 µM (inactive); in assay [11], > 100 µM (inactive); in assay [12], 20.5 µM (inactive). In addition, the GI50 in assay [13] and in [14] was > 100 µM (inactive) throughout.

Consider `CC(C)(C)CC(C)(C)c1cc2c(O)c(c1)Cc1cc(C(C)(C)CC(C)(C)C)cc(c1O)Cc1cc(C(C)(C)CC(C)(C)C)cc(c1O)Cc1cc(C(C)(C)CC(C)(C)C)cc(c1O)Cc1cc(C(C)(C)CC(C)(C)C)cc(c1O)Cc1cc(C(C)(C)CC(C)(C)C)cc(c1O)C2`, for which the GI50 in [1], in assay [2], in [3], in assay [15], in [4] and in assay [6] was > 100 µM (inactive) each time. Moreover, the GI50 in assay [7], in assay [8], in assay [9], in [10], in assay [11] and in assay [12] was > 100 µM (inactive) in each case. In addition, the GI50 in assay [13] and in [14] was > 100 µM (inactive) each time.

For the compound `CCOc1ccccc1NC(=O)C1=C(C)NC(C)=C(C(=O)Nc2ccccc2OCC)C1c1ccc(NC(C)=O)cc1`, the GI50 in assay [1] is 40.7 µM (inactive); in assay [3], 22.4 µM (inactive); in assay [15], 9.66 µM (inactive); in assay [4], 6.25 µM (inactive); in [5], 11.5 µM (inactive); in assay [6], 47.4 µM (inactive). Further, the GI50 was 46.2 µM (inactive) in assay [7]; 45.3 µM (inactive) in [8]; 47.8 µM (inactive) in [9]; 56.6 µM (inactive) in assay [10]; 17.9 µM (inactive) in [11]; 35.6 µM (inactive) in assay [12]. The GI50 in assay [13] was 46.6 µM (inactive); in assay [14], 9.75 µM (inactive).

With `On1c(-c2ccccc2)c(-c2c(-c3ccccc3)n(O)c3ccccc23)c2ccccc21`, the GI50 in [1] is 21.9 µM (inactive); in [2] it was 55.3 µM (inactive); in [3], 29.9 µM (inactive); in [4], 22.8 µM (inactive); in assay [5], 29.8 µM (inactive); in assay [7], 35.5 µM (inactive). Moreover, the GI50 in assay [8] is 38 µM (inactive); in [10], 55 µM (inactive); in assay [11], 25.8 µM (inactive); in [13], 32.4 µM (inactive); in [14], 27.5 µM (inactive).

Regarding `O=c1cc2n(c(=O)[nH]1)C1OC(C(O)C1O)[C@@H]2CCO` (stereo not given in full), the GI50 in assay [1], in [2], in [3], in assay [15], in assay [4] and in assay [5] was > 100 µM (inactive) throughout. The GI50 in [6], in [7], in [10], in assay [11], in assay [12] and in assay [13] was > 100 µM (inactive) throughout.
